# Source: patent publication US10722529B2, “Modulation of NAD+ metabolic pathways for treatment of disease” (Temple University—Of The Commonwealth System of Higher …, priority 2015, dated 2020)
# Entries after “also recorded” stand apart in the source; their conditions may differ.
# Legend:
# CD38 = CD38 (Homo sapiens, UniProt P28907); settings: at micromolar concentrations; cited from earlier work
# intracellular NAD+ = settings: at micromolar concentrations; cited from earlier work
# [1] = tested on: adipose tissue macrophage infiltration; settings: mice; cited from earlier work
# HIV/AIDS = settings: prior to the advent of cART; cited from earlier work
# HIV = settings: in vitro and in patients; cited from earlier work
# plasma tryptophan = settings: HIV infected subjects, supplementation; cited from earlier work
# NAD+ = NAD+ concentration in PBMC of rhesus macaques treated with increasing NR over 5 weeks; assay type: in vivo, rhesus macaque; settings: SIV infected rhesus macaques, increasing concentrations of NR over a 5 week period
# Protocol: Peripheral blood mononuclear cells (PBMC) from five seronegative and four seropositive rhesus macaques were lysed and assayed for NAD+ concentration after treatment with increasing concentrations of nicotinamide riboside (NR) over a 5 week period. […] Paired T test and one way ANOVA was performed *P≤0.05; **P≤0.01 n=9.
# Experiments were then conducted to examine the effect of nicotinamide riboside treatment on NAD+ levels in SIV infected animals. Peripheral blood mononuclear cells (PBMC) from five seronegative and four seropositive rhesus macaques were lysed and assayed for NAD+ concentration after treatment with increasing concentrations of nicotinamide riboside (NR) over a 5 week period.
# [2] = tested on: kynurenine to tryptophan ratio; assay: Plasma kynurenine to tryptophan ratio (KTR) in NR-treated rhesus macaques; assay type: in vivo, rhesus macaque
# Protocol: FIG. 8A depicts the KTR in SIV infected animals treated with different concentrations of NR. FIG. 8B depicts the KTR in uninfected animals treated with different concentrations of NR.
# (§1) As described herein, an increase in the kynurenine to tryptophan ratios in the SIV macaque model was identified, with a positive correlation with viral load and soluble CD163 in plasma. […] In an effort to modulate the kynurenine pathway, and decrease tryptophan metabolism, a dose escalation study was performed with the NAD salvage pathway precursor, nicotinamide riboside (NR), in SIV infected macaques. […] This monocyte subset has been implicated in the pathogenesis of HIV infection, HAND, as well as other HIV associated comorbidities. […] The regulation of the kynurenine pathway appears to be complex, yet an attractive target for HIV therapeutics. Understanding the mechanism by which HIV modulates the kynurenine pathway could provide new therapeutic targets for the treatment of HIV and HAND.
# Experiments were then conducted to examine if kynurenine to tryptophan ratios of SIV infected macaques correlate with sCD163 plasma level, ATP plasma level, and viral load. ELISA kits were used according to the manufacturer's directions to determine plasma concentrations of sCD163, kynurenine and tryptophan. Plasma ATP levels were analyzed using ATPLite assay. It was determined that kynurenine to tryptophan ratios increased in relations to higher viral loads (r=0.4774; p=0.0028) (FIG. 5A). Further, a positive correlation between kynurenine to tryptophan ratio and sCD163 plasma concentration was observed (r=0.473; p=0.0027) (FIG. 5B).
# CD14+/CD16+ monocytes = assay: Flow cytometry of CD14/CD16 on PBMC monocytes of NR-treated rhesus macaques; assay type: in vivo, rhesus macaque; settings: for CD16 expression on CD14+ monocytes (FACS dot plots): five seronegative and four seropositive macaques, before vs after NR
# Protocol: (§2) PBMC from five seronegative and four seropositive rhesus macaques were analyzed after treatment with increasing concentrations of nicotinamide riboside (NR) over a 5-week period.
# PBMC from five seronegative and four seropositive rhesus macaques were stained with antibodies to CD14 and CD16 and analyzed by flow cytometry after treatment with increasing concentrations of NR over a 5-week period. The mean fluorescence intensity (MFI) and percent frequency (% Freq) of CD16 was determined for each animal. […] One-way ANOVA was performed *P≤0.05; **P≤0.01; ***P≤0.001; n=9.
# as §2, with “Experiments were then conducted to examine whether nicotinamide riboside treatment effects CD16 expression on CD14+ monocytes. PBMC” for “PBMC”
# Experiments were then conducted to examine the effects of NR treatment on CD14 and CD16 expression. PBMC from five seronegative and four seropositive rhesus macaques were stained with antibodies to CD14 and CD16 and analyzed by flow cytometry after treatment with increasing concentrations of NR over a 5-week period. The mean fluorescence intensity (MFI) and percent frequency (% Freq) of CD16 was determined for each animal.
# CD4/CD8 ratio = CD4/CD8 ratio in NR dose escalation study in SIV infected macaques; assay type: in vivo, rhesus macaque; settings: SIV infected animals; highest dose (400 mg/kg)
# Protocol: as §1
# [3] = tested on: macrophage colony-stimulating factor (M-CSF); assay: M-CSF in NR treated macaques; assay type: in vivo, rhesus macaque
# From the text: FIG. 11 depicts experimental results showing that macrophage colony-stimulating factor (M-CSF) is reduced in NR treated macaques.
# human monocytes = assay: CD16 expression in human monocytes isolated from donor PBMCs in the presence of M-CSF; assay type: cell-based; settings: M-CSF treatment, in vitro
# From the text: FIG. 12 depicts the flow cytometry gating strategy used to separate two CD16 positive monocyte subsets.
# FIG. 14 depicts the mean fluorescent intensity for CD16 expression in human monocytes isolated from donor PBMCs in the presence of M-CSF treatment.
# SIV = assay: Viral load in SIV infected macaques treated with NR (latency reversal); assay type: in vivo, rhesus macaque
# From the text: Four SIV infected macaques were followed over time during chronic infection, two treated with combination anti-retroviral therapy (cART), and two non-treated.
# IDO = settings: cited from earlier work
# [4] = listed as nicotinamide riboside
# [5] = uninfected and SIV infected macaques, before vs after NR over 5 weeks
# Chain of CD38 (P28907 whole entry, species assumed): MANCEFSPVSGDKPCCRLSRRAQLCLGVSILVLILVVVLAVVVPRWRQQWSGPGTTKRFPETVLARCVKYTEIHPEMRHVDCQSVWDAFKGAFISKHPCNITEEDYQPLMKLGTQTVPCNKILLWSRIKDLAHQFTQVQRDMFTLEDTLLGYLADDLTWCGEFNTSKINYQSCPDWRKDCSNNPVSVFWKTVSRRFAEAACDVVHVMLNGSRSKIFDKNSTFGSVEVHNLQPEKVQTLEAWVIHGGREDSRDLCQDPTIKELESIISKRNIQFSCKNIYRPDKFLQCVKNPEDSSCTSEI
smiles,measurement,setting,value
O=c1c(O)c(-c2ccc(O)c(O)c2)oc2cc(O)cc(O)c12 [quercetin],inhibition of CD38 enzyme activity,CD38,inhibit CD38 enzyme activity
same,intracellular NAD+,intracellular NAD+,increase intracellular NAD+
same,SIRT-1 activity,[1],increased SIRT-1 activity
same,"inflammatory cytokine levels in tissue and sera (TNFα, MCP-1, IL-6)",[1],reduced inflammatory cytokine levels
same,obesity associated adipose tissue macrophage infiltration,[1],reduce obesity associated adipose tissue macrophage infiltration
O=C(O)c1cccnc1 [niacin],delay of progression of HIV/AIDS,HIV/AIDS,some benefit in delaying the progression of HIV/AIDS
O=C(CCCCCCC(=O)Nc1ccccc1)NO [vorinostat],latency reversal on repeated dosages,HIV,diminishing returns over time
O=c1cc(-c2ccc(O)cc2)oc2cc(O)cc(O)c12 [apigenin],inhibition of CD38 enzyme activity,CD38,inhibit CD38 enzyme activity
same,intracellular NAD+,intracellular NAD+,increase intracellular NAD+
NC(=O)c1cccnc1 [nicotinamide],plasma tryptophan levels,plasma tryptophan,increases plasma tryptophan levels
"NC(=O)c1ccc[n+]([C@@H]2O[C@H](CO)[C@@H](O)[C@H]2O)c1 [NR, nicotinamide riboside]",NAD+ concentration in PBMC,NAD+,significantly increased
same,NAD+ concentration in PBMC,NAD+; [4],increases NAD+ levels
same,kynurenine to tryptophan ratio,"[2]; SIV infected animals, 100 mg/kg dose",appeared to increase
same,kynurenine to tryptophan ratio (KTR),"[2]; SIV infected animals, different concentrations of NR",decreased; also recorded: decreases KTR
same,kynurenine to tryptophan ratio (KTR),"[2]; uninfected (seronegative) animals, relative to pretreatment values",no significant impact
same,CD16 expression on CD14+ monocytes (FACS dot plots),CD14+/CD16+ monocytes,decreased in all animals examined
same,CD16 expression on CD14+ monocytes (FACS dot plots),CD14+/CD16+ monocytes; [4],significantly decreases
same,mean fluorescence intensity (MFI) of CD16 on CD14+/CD16+ monocytes,CD14+/CD16+ monocytes; [5],significantly reduced; also recorded: significantly higher than after treatment; also recorded: significantly decreases
same,percent frequency of CD14+/CD16+ monocytes (% Freq of CD16),CD14+/CD16+ monocytes; [5],significantly reduced; also recorded: significantly decreases
same,CD4/CD8 ratio,CD4/CD8 ratio,decrease CD4/CD8 ratio
same,M-CSF level,[3],reduces M-CSF; also recorded: reduced
same,CD16 monocyte subset expression,human monocytes,inhibits CD16 monocyte expression induced by M-CSF; also recorded: reduces CD16 monocyte subset expression
same,function as latency reversing agent for SIV infection,SIV; SIV infected rhesus macaques,potential for NR to function as a latency reversing agent; also recorded: may function as a latency reversing agent
same,viral load,"SIV; four SIV infected macaques, chronic infection, two on cART, two non-treated, all treated with NR",evidence for viral load increase in all animals
same,viral load over time,SIV; the animal on cART with the lowest viral load,increase in viral load and then decrease over time
Cn1cc(C[C@H](N)C(=O)O)c2ccccc21 [1-methyl tryptophan],effect on tryptophan depletion or alterations in the kynurenine pathway,"IDO; SIV/rhesus macaque model, IDO blockade",incapable of affecting
same,disturbance in K/T over-time,IDO; infected animals vs controls,increased the disturbance in K/T over-time in infected animals but not in controls
